Source: US9388126B2, “Sigma receptor ligands and methods of modulating cellular protein homeostasis using same” (Drexel University, priority 2012, dated 2016)

Assays:
Type in all cases: cell-based, human
MDA-MB-468 cells = test: Cell size by flow cytometry (mean FSC-H, G1 phase); conditions: 10 μM
Experimental: FIG. 11 is a graph illustrating decrease in MDAMB468 cell size associated with the Sigma1 antagonist treatment. MDA-MB-468 cells were treated for 24 hours with DMSO (control), 10 μM IPAG (antagonist), or 10 μM PRE084 (agonist). Cell size was quantitated by flow cytometry, using a Becton Dickinson FACS Calibur flow cytometer with Cell Quest software. The mean forward scatter height (FSC-H) of the G1-phase population was determined as a measure of relative cell size. Single cells were gated away from aggregated cells using an FL2-width versus FL-2 area dot plot. Mean FSC-H±S.E. was calculated from at least 4 independent determinations. For each FSC-H determination, FACS analysis was performed on 10,000 single cells. The mean FSC-H of DMSO (control) and PRE084 treated MDA-MB-468 measured 370±6 and 372±7, respectively, whereas the mean FSC-H of IPAG treated MDA-MB-468 cells was 323±4. ** P<0.01 for IPAG compared to DMSO and IPAG compared to PRE084.
FIG. 31A is a differential interference contrast (DIC) image of MDA-MB-468 breast adenocarcinoma cells treated for ˜20 hours with DMSO (drug vehicle control), 10 μM IPAG (antagonist) or 10 μM PRE084 (agonist). A twenty-micron bar is shown in each image. Data are presented as mean±SEM. FIG. 31B is a graph illustrating the finding that IPAG diminished the mean cell size (FSC-H) of MDA-MB-468 breast tumor cells in a time-responsive manner. The mean FSC-H of 370±5 at to decreased to 323±4 after 24 hours of IPAG treatment and to 267±2 after 48 hours of treatment. Two-tailed t-tests were performed to determine statistical significance. For IPAG treatment compared to control (DMSO) and Sigma agonists (SKF and PRE084), P=0.0002 at d1 and P=0.00013 at d2. Data were generated from three to five independent determinations for each time-point. […] T-47D were treated for 24 h with 1 and 10 μM IPAG, and mean FSC-H was measured. […] For FIGS. 31B-31E, the mean FSC-H was determined for each cell cycle population (i.e., G1, S, G2/M), and data is shown for G1 phase cells. […]

[1] = test system: MDA-MB-468 breast tumor cells; test: Akt, S6K and ERK phosphorylation immunoblots
Experimental: FIG. 40, comprising FIGS. 40A-40C, illustrates Sigma1 antagonist modulation of Akt, S6K, and ERK phosphorylation. MDA-MB-468 breast tumor cells were treated for 24 hours with 10 μM IPAG (Sigma1 antagonist) or (+)SKF-10047 (SKF, Sigma1 agonist). Treated cells were harvested and cellular proteins were extracted with a buffer containing 1% Sodium Dodecyl Sulfate (SDS) and deoxycholate (DOC), supplemented with phosphatase and protease inhibitors. FIG. 40A is an image of an immunoblot illustrating Akt phosphorylation. […] Akt phosphorylation at threonine 308 was not altered in any of the samples (not shown). Equivalent loading was confirmed with an anti-GAPDH antibody. FIG. 40B is an image of an immunoblot illustrating phosphorylation. Phosphorylation of mTOR substrate, p70S6K at threonine 389 decreased 3-fold in IPAG, but not SKF treated cells. Total p70S6K was immunoblotted as a loading control. FIG. 40C is an immunoblot illustrating that p44/42 ERK1/2phosphorylation at threonine 202 and tyrosine 204 was abrogated by 24 hour treatment with IPAG. Data shown is representative of two independent experiments.

[2] = test system: MCF-7, T47D and MDA-MB-468 cells; test: Cell proliferation by Alamar blue reduction, breast adenocarcinoma cultures; conditions: after 4 days of treatment, six drug concentrations
Source text: In vitro cell proliferation was quantitated by Alamar blue reduction. The anti-proliferative effects of six drug concentrations of the indicated drugs were quantitated after 4 days of treatment.

N=C(Nc1ccc(I)cc1)NC1C2CC3CC(C2)CC1C3 (stereo not drawn) [IPAG, 1-(4-iodophenyl)-3-(2-adamantyl)guanidine]
mean FSC-H (relative cell size) (MDA-MB-468 cells; 24 hours): 323±4 | mean FSC-H (relative cell size) (MDA-MB-468 cells; 48 hours): 267±2 | decrease of Akt phosphorylation at serine 473 ([1]; 10 μM, 24 hours): 3 fold | decrease of p70S6K phosphorylation at threonine 389 ([1]; 10 μM, 24 hours): 3 fold | p44/42 ERK1/2 phosphorylation at threonine 202 and tyrosine 204 ([1]; 24 hour treatment): abrogated | inhibition of cell proliferation [2]: inhibited cell proliferation with comparable potencies in all cell lines
